Patent publication US6013623A, “Use of heme-peptides to prevent or retard disease associated with oxidative stress” (The Trustees of Columbia University in the City of New York, priority 1997, dated 2000)
No end group written: not given here.

Assays:
[1] = tested on: lens epithelial cell culture; settings: range required for effective activity; cited from earlier work
[2] = Degradation of H2O2 by microperoxidase (ferroammonium sulfate/thiocyanate H2O2 assay); type: biochemical
Method: (FIG. 1A) Effect of cofactors on μPx-11 degradation of H2 O2. 300 μM hydrogen peroxide (H2 O2) was incubated with μPx-11 in 50 mM phosphate buffer, pH 7.0 at 25° C. in 1 ml. At indicated times, 50 μl aliquots were removed for H2 O2 assay as described in the Materials and Methods section. 50 mM phosphate buffer, pH 7.0 buffer+500 μM NADPH, buffer+1 mM ascorbate (Asc), buffer+3 μM (μPx-11), prior solution+500 μM NADPH, as the previous solution but with 1 mM Asc rather than NADPH. 20 μM μPx-11 in 50 mM phosphate buffer pH 7.0. The results represent the average±S.D. of 3 experiments in most cases.
(FIG. 1B) Stability of μPx-11 as measured by ability to degrade H2 O2. 300 μM H2 O2 in 2 ml of 50 mM phosphate buffer, pH. […] The levels of certain components (H2 O2, NADPH or Asc) were brought back to estimated starting concentrations based on prior experiments and the H2 O2 decay again measured. […]
(FIG. 1C) Concentration dependence of μPx-11 in the presence of Asc. […] The data is expressed as nmoles H2 O2 degraded per ml per minute per nmole μPx-11 in 1 ml. The initial H2 O2 degradation rate measured in the first minute is given. […]
H2 O2 was assayed by the method of Hildebrandt et al. (1978), as modified by Spector et al. (1993a) and is based on the oxidation of ferroammonium sulfate in the presence of potassium thiocyanate. […] Hydroxyl radical was determined as previously described (Spector et al., 1993a). […]

Compound	toxicity [1]	effect of H2O2 on peroxidase ([2]; absence of Asc)	ability to degrade H2O2 compared with μPx-11 ([2]; presence of 1 mM Asc)
O=c1c2ccccc2[se]n1-c1ccccc1 [Ebselen]	toxic in the μM (micromolar) range	–	–
CN(C)Cc1ccccc1[Se][Se]c1ccccc1CN(C)C [2,2'diselenobis (N,N dimethylamino)methyl benzene]	toxic in the μM (micromolar) range	–	–
μPx-8: heme-peptide with the cytochrome C peptide segment containing residue 14 to 21 (CAQCHTVE; cysteine pairing not given here; also: heme-peptide, heme attachment not placed; UniProt P00004 15-22, looked up, fragment)	–	inactivated	more active than μPx-11
